Results as given in US7737141B2, “Prodrug of cinnamide compound” (Eisai R&D Management Co., Ltd., priority 2006, dated 2010).
Like-named read-outs stand apart in the source and are kept apart here.

Experiment: Solubility test: apparent solubility in test solutions, HPLC-UV
Assay type: physicochemical
Conditions: for solubility: aqueous buffer, thermodynamic from solid
Experimental: Several milligram of each compound to be tested was precisely weighed, and 0.1 to 1.3 mL of the following test solutions were each added to the compound. The resulting mixture was stirred for several tens of seconds to several minutes for dispersing or dissolving the compound. Then, the supernatant was collected by centrifugation or filtration through a membrane. The concentration of the compound in the supernatant was quantitatively measured by an HPLC-UV method as an apparent solubility of the compound to each test solution.
pH 5: Diluted Mcllvaine buffer solution (KANTO Chemical Co. Inc.)
pH 7: GIBCO™ Dulbecco's phosphate-buffered saline (Invitrogen Corporation)

[1] = pH 7: Dulbecco's phosphate-buffered saline, read-out: Solubility at pH 7
[2] = diluted McIlvaine buffer solution, pH 5: Diluted Mcllvaine buffer solution, read-out: Solubility at pH 5

Molecule	Solubility at pH 5 (pH 5: Diluted Mcllvaine buffer solution)	Solubility at pH 7 (pH 7: Dulbecco's phosphate-buffered saline)	solubility [1]	solubility [2]
1-{4-{(E)-1-{[(S)-1-(4-fluorophenyl)ethyl]-2-oxopiperidin-3-ylidene}methyl}-2-methoxyphenyl}-4-methyl-1H-imidazol-3-iomethyl monohydrogenphosphate [Example 2]	>10 mg/mL	>10 mg/mL	–	–
COc1cc(/C=C2\CCCN([C@@H](C)c3ccc(F)cc3)C2=O)ccc1-n1cc(C)[n+](COC(C)=O)c1.[I-] [Example 3, 1-acetoxymethyl-3-[4-{1-[(S)-1-(4-fluorophenyl)ethyl]-2-oxopiperidin-(3E)-ylidenemethyl]-2-methoxyphenyl}-5-methyl-3H-imidazol-1-ium iodide]	–	–	1120 µg/mL	1240 µg/mL
COc1cc(/C=C2\CCCN([C@H](c3cc(F)c(F)c(F)c3)[C@@H](C)O)C2=O)ccc1-n1cc(C)[n+](COP(=O)(O)O)c1.O=C([O-])C(F)(F)F [Example 4, 3-{4-{1-[(1R,2R)-2-hydroxy-1-(3,4,5-trifluorophenyl)propyl]-2-oxopiperidin-(3E)-ylidenemethyl}-2-methoxyphenyl}-5-methyl-1-(phosphonooxymethyl)-3H-imidazol-1-ium trifluoroacetate]	–	–	> 10000 µg/mL	> 10000 µg/mL
Cc1cn(-c2ccc(/C=C3\O[C@@H](C)CN([C@H](c4cc(F)c(F)c(F)c4)[C@@H](C)O)C3=O)cc2F)c[n+]1COP(=O)(O)O.O=C([O-])C(F)(F)F [Example 5, 3-[2-fluoro-4-[(S)-4-[(1R,2R)-2-hydroxy-1-(3,4,5-trifluorophenyl)propyl]-6-methyl-3-oxomorpholin-(2Z)-ylidenemethyl]phenyl]-5-methyl-1-phosphonooxymethyl-3H-imidazol-1-ium trifluoroacetate]	–	–	460 µg/mL	320 µg/mL
COc1cc(/C=C2\CC[C@H]3CC[C@@H](c4cc(F)c(F)c(F)c4)N3C2=O)ccc1-n1cc(C)[n+](COP(=O)(O)O)c1.O=C([O-])C(F)(F)F [Example 6, 3-{2-methoxy-4-[(3S,8aS)-5-oxo-3-(3,4,5-trifluorophenyl)hexahydroindolizin-(6E)-ylidenemethyl]phenyl}-5-methyl-1-phosphonooxymethyl-3H-imidazol-1-ium trifluoroacetate]	–	–	8890 µg/mL	9140 µg/mL
COc1cc(/C=C2\CC[C@H]3CC[C@@H](c4ccc(Cl)cc4)N3C2=O)ccc1-n1cc(C)[n+](COP(=O)(O)O)c1.O=C([O-])C(F)(F)F [Example 8, 3-{4-[(3S,8aS)-3-(4-chlorophenyl)-5-oxohexahydroindolizin-(6E)-ylidenemethyl]-2-methoxyphenyl}-5-methyl-1-(phosphonooxymethyl)-3H-imidazol-1-ium trifluoroacetate]	–	–	1690 µg/mL	960 µg/mL
Cc1cn(-c2ccc(/C=C3\O[C@@H](C)CN([C@H](c4ccc(F)c(F)c4)[C@@H](C)O)C3=O)cc2F)c[n+]1COP(=O)(O)O.O=C([O-])C(F)(F)F [Example 9, 3-{4-{(S)-4-[(1R,2R)-1-(3,4-difluorophenyl)-2-hydroxypropyl]-6-methyl-3-oxomorpholin-(2Z)-ylidenemethyl}-2-fluorophenyl}-5-methyl-1-phosphonooxymethyl-3H-imidazol-1-ium trifluoroacetate]	–	–	4720 µg/mL	3450 µg/mL
COc1cc(/C=C2\CC[C@@H]3CCC[C@@H](c4cc(F)c(F)c(F)c4)N3C2=O)ccc1-n1cc(C)[n+](COP(=O)(O)O)c1.O=C([O-])C(F)(F)F [Example 10, 3-{2-methoxy-4-[(6S,9aS)-4-oxo-6-(3,4,5-trifluorophenyl)hexahydroquinolizin-(3E)-ylidenemethyl]phenyl}-5-methyl-1-(phosphonooxymethyl)-3H-imidazol-1-ium trifluoroacetate]	–	–	9760 µg/mL	9590 µg/mL
COc1cc(/C=C2\CC[C@H]3COC[C@@H](c4cc(F)c(F)c(F)c4)N3C2=O)ccc1-n1cc(C)[n+](COP(=O)(O)O)c1.O=C([O-])C(F)(F)F [Example 11, 3-{2-methoxy-4-[(4R,9aS)-6-oxo-4-(3,4,5-trifluorophenyl)hexahydropyrido[2,1-c][1,4]oxazin-(7E)-ylidenemethyl]phenyl}-5-methyl-1-phosphonooxymethyl-3H-imidazol-1-ium trifluoroacetate]	–	–	8110 µg/mL	7680 µg/mL
COc1cc(/C=C2\O[C@@H](C)CN([C@H](c3cc(F)c(F)c(F)c3)[C@@H](C)O)C2=O)ccc1-n1cc(C)[n+](COP(=O)(O)O)c1.O=C([O-])C(F)(F)F [Example 12, 3-{4-{(S)-4-[(1R,2R)-2-hydroxy-1-(3,4,5-trifluorophenyl)propyl]-6-methyl-3-oxomorpholin-(2Z)-ylidenemethyl}-2-methoxyphenyl}-5-methyl-1-(phosphonooxymethyl)-3H-imidazol-1-ium trifluoroacetate]	–	–	1830 µg/mL	3440 µg/mL
COc1cc(/C=C2\CC[C@H]3CCC[C@@H](c4ccc(Cl)cc4)N3C2=O)ccc1-n1cc(C)[n+](COP(=O)(O)O)c1.O=C([O-])C(F)(F)F [Example 13, 3-{4-[(6S,9aR)-6-(4-chlorophenyl)-4-oxohexahydroquinolizin-(3E)-ylidenemethyl]-2-methoxyphenyl}-5-methyl-1-phosphonooxymethyl-3H-imidazol-1-ium trifluoroacetate]	–	–	9150 µg/mL	9330 µg/mL
COc1cc(/C=C2\O[C@@H](C)[C@H]3COC[C@@H](c4cc(F)c(F)c(F)c4)N3C2=O)ccc1-n1cc(C)[n+](COP(=O)(O)O)c1.O=C([O-])C(F)(F)F [Example 14, 3-{2-methoxy-4-[(1S,6R,9aR)-1-methyl-4-oxo-6-(3,4,5-trifluorophenyl)tetrahydro-[1,4]oxazino[3,4-c][1,4]oxazine-(3Z)-ylidenemethyl]phenyl}-5-methyl-1-phosphonooxymethyl-3H-imidazole-1-ium trifluoroacetate]	–	–	> 10000 µg/mL	> 10000 µg/mL
COc1cc(/C=C2\O[C@@H](C)[C@H]3COC[C@@H](c4ccc(Cl)cc4)N3C2=O)ccc1-n1cc(C)[n+](COP(=O)(O)O)c1.O=C([O-])C(F)(F)F [Example 15, 3-{4-[(1S,6R,9aR)-6-(4-chlorophenyl)-1-methyl-4-oxotetrahydro[1,4]oxazino[3,4-c][1,4]oxazine-(3Z)-ylidenemethyl]-2-methoxyphenyl}-5-methyl-1-phosphonooxymethyl-3H-imidazole-1-ium trifluoroacetate]	–	–	> 10000 µg/mL	> 10000 µg/mL
COc1cc(/C=C2\O[C@@H](C)[C@H]3CC[C@@H](c4cc(F)c(F)c(F)c4)N3C2=O)ccc1-n1cc(C)[n+](COP(=O)(O)O)c1.O=C([O-])C(F)(F)F [Example 16, 3-{2-methoxy-4-[(1S,6S,8aR)-1-methyl-4-oxo-6-(3,4,5-trifluorophenyl)tetrahydropyrrolo[2,1-c][1,4]oxazine-(3Z)-ylidenemethyl]phenyl}-5-methyl-1-phosphonooxymethyl-3H-imidazole-1-ium trifluoroacetate]	–	–	1120 µg/mL	1150 µg/mL
COc1cc(/C=C2\O[C@@H](C)[C@H]3COC[C@@H](c4ccc(F)c(F)c4)N3C2=O)ccc1-n1cc(C)[n+](COP(=O)(O)O)c1.O=C([O-])C(F)(F)F [Example 17, 3-{4-[(1S,6R,9aR)-6-(3,4-difluorophenyl)-1-methyl-4-oxotetrahydro[1,4]oxazino[3,4-c][1,4]oxazine-(3Z)-ylidenemethyl]-2-methoxyphenyl}-5-methyl-1-phosphonooxymethyl-3H-imidazole-1-ium trifluoroacetate]	–	–	7550 µg/mL	> 10000 µg/mL
COc1cc(/C=C2\OC(C)(C)[C@H]3COC[C@@H](c4cc(F)c(F)c(F)c4)N3C2=O)ccc1-n1cc(C)[n+](COP(=O)(O)O)c1.O=C([O-])C(F)(F)F [Example 18, 3-{4-[(6R,9aR)-1,1-dimethyl-4-oxo-6-(3,4,5-trifluorophenyl)tetrahydro[1,4]oxazino[3,4-c][1,4]oxazine-(3Z)-ylidenemethyl]-2-methoxyphenyl}-5-methyl-1-phosphonooxymethyl-3H-imidazole-1-ium trifluoroacetate]	–	–	> 10000 µg/mL	> 10000 µg/mL
